In patent US8629164B2, “Inhibitors of NF-κB” (Profectus Biosciences, Inc., priority 2009, dated 2014):
Structures can show the parent of a compound that is named as a salt.

Assays:
NF-κB [1] = test: 293-cell pNF-κB-luc reporter assay, TNF-α induced; type: cell-based; settings: HEK293 cells, NF-κB driven luciferase expression, read-out: 293/NFkB-luc EC50
Protocol: (§1) Inhibition of NF-κB in cells by the compound of Example 1. Two reporter cell assays were used to determine the ability of the compound of Example 1 to inhibit NE-KB driven transcription. The first assay was a 293-cell based assay with a stably integrated pNF-κB-luc reporter plasmid containing 3 NF-κB promoter elements. The second assay was a 293-cell based assay with a stably integrated pTRH1-NF-κB-dscGFP reporter containing 4 NF-κB promoter elements. Cells were treated with 0, 0.2, 1, 10, 20 and 40 μM of the compound of Example 1 for 2 hours then were induced with 20 ng/ml TNF-α for 18 hours. Following the induction, luminescence or fluorescence was quantified using a Beckman-Coulter 2300 plate reader. […] These values represent the median value generated from three independent experiments±the standard error. As a control, 0.5% DMSO treated and untreated cells were compared to verify that the Example 1 carrier had no effect on the expression of luciferase or in the readout of the assay. There was a slight decrease in the output from the assay in the DMSO treated population although it was not statistically significant. As a result of the controls, the decrease in activity in the drug treated samples was compared to the DMSO control sample.

NF-κB [2] = test: 293-cell pTRH1-NF-κB-dscGFP reporter assay, TNF-α induced; type: cell-based; settings: Homo sapiens, HEK293, HEK293 cells, NF-κB driven GFP expression; read-out: NF-kB/293/GFP EC50
Protocol: as §1

[3] = system: IL-6 release from RAW264.7 cells; test: IL-6 release from LPS stimulated RAW264.7 cells; type: cell-based, mouse
Protocol: Specifically, A and B show the effects of the compound of Example 1 on soluble PGE2 and Il-6 secretion from RAW264.7 cells stimulated by 1 μg/mL of LPS. The cells were treated with the indicated concentrations of the compound of Example 1 for 2 hours, and then LPS was added and incubation continued for 4 hours. […]

p65 (RelA) = p65 (RelA) (Homo sapiens, UniProt Q04206); test: TransAM NF-κB Family DNA Binding ELISA, p65; settings: p65 binding IC50 (uM), binding to NF-κB sites
Protocol: (§2) Treated samples were then transferred to 30 μL Complete Binding Buffer (with DTT) in microplate wells pre-coated with the NF-κB consensus oligonucleotide. […] The plate was incubated for 1 hour at room temperature with gentle shaking and then washed 3 times with 200 μL 1× Wash Buffer. NF-κB p65, p50, p52, RelB, or c-Rel subunits bound to the plate were detected with 100 μL of the primary antibody (diluted 1:1000 in 1× Antibody Buffer) specific for that subunit. The plate was incubated for 1 hour at room temperature and then washed 3 times with 200 μL 1× Wash Buffer. Next, 100 μL of a HRP conjugated goat anti-rabbit antibody (diluted 1:1,000 in 1× Antibody Buffer) was added to each well. The plate was incubated for 1 hour at room temperature and then washed 4 times with 200 μL 1× Wash Buffer. 100 μL of room temperature Developing Solution was added to each well. The reaction was allowed to develop for 2-10 minutes until a medium dark blue color developed (depending on the subunit activity in the lot of extract or lot of recombinant protein used) and then the reaction was stopped with 100 μL Stop Solution yielding a yellow color. Absorbance was recorded using a Becton-Dickinson DTX 880 Multimode Detector at 450 nm with a reference wavelength subtracted at 620 nm.

p50 = biological target: T1, p50 (Homo sapiens, UniProt P19838); test: TransAM NF-κB Family DNA Binding ELISA, p50; settings: for IC50: p50 binding IC50 (uM), cells without % sign; for inhibition at 5 µM: read-out: p50 binding % inhibit. at 5 uM
T1 sequence (P19838 1-433 limits assumed): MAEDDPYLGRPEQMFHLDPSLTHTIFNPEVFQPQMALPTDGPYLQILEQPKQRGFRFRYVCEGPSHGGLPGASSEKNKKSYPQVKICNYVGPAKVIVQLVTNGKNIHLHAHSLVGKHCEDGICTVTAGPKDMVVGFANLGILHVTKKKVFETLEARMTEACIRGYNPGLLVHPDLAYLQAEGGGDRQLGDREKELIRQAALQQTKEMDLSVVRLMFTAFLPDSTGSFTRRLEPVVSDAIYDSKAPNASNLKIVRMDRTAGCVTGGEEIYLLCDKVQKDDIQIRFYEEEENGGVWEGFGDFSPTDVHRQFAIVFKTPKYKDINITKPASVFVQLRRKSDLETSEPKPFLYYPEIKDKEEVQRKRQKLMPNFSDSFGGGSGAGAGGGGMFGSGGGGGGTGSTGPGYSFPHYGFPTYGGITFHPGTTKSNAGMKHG
Protocol: as §2

p52 = biological target: T2, p52 (Homo sapiens, UniProt Q00653); test: TransAM NF-κB Family DNA Binding ELISA, p52; settings: for IC50: p52 binding IC50 (uM), cells without % sign; for inhibition at 5 µM: read-out: p52 binding % inhibit. at 5 uM, at 5 uM
T2 sequence (Q00653 1-454 limits assumed): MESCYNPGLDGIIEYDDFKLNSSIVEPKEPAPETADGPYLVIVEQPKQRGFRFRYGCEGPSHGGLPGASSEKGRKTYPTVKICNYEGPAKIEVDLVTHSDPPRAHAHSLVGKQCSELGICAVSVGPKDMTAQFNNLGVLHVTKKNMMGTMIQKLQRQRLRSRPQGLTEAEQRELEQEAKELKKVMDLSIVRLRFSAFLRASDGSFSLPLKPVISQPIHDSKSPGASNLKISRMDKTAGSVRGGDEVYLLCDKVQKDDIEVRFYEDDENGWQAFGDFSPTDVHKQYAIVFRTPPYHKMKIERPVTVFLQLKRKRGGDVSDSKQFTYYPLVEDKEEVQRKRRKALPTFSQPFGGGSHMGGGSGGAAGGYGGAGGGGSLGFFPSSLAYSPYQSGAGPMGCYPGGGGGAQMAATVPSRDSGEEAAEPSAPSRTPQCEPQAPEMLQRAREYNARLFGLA
Protocol: as §2

RelB = biological target: T3, RelB (Homo sapiens, UniProt Q01201); test: TransAM NF-κB Family DNA Binding ELISA, RelB; settings: for inhibition at 5 µM: read-out: RelB binding % inhibit. at 5 uM, at 5 uM; for IC50: RelB binding IC50 (uM), cells without % sign
T3 sequence (Q01201 1-579): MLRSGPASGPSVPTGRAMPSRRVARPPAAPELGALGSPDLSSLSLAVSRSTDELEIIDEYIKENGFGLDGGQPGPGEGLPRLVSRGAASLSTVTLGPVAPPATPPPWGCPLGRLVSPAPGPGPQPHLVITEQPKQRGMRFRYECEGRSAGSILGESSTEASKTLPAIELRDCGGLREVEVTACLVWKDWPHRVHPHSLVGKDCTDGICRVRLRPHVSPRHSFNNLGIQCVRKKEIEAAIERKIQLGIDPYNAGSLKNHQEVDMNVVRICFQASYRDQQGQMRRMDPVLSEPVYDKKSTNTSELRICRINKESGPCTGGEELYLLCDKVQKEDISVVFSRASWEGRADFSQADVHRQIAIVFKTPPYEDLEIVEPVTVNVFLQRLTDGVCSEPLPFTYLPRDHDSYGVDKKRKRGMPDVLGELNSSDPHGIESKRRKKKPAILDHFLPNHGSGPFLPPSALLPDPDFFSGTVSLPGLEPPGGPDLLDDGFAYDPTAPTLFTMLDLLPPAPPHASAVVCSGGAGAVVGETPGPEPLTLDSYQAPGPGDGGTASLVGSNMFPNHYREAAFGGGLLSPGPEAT
T3 sequence (Q00653 1-454 partner limits assumed): T2 sequence (Q00653 1-454 limits assumed)
Protocol: as §2

c-Rel = biological target: T4, c-Rel (Homo sapiens, UniProt Q04864); test: TransAM NF-κB Family DNA Binding ELISA, c-Rel; settings: for inhibition at 5 µM: read-out: c-Rel binding % inhibit. at 5 uM, at 5 uM; for IC50: c-Rel binding IC50 (uM), cells without % sign
T4 sequence (Q04864 2-619 limits assumed): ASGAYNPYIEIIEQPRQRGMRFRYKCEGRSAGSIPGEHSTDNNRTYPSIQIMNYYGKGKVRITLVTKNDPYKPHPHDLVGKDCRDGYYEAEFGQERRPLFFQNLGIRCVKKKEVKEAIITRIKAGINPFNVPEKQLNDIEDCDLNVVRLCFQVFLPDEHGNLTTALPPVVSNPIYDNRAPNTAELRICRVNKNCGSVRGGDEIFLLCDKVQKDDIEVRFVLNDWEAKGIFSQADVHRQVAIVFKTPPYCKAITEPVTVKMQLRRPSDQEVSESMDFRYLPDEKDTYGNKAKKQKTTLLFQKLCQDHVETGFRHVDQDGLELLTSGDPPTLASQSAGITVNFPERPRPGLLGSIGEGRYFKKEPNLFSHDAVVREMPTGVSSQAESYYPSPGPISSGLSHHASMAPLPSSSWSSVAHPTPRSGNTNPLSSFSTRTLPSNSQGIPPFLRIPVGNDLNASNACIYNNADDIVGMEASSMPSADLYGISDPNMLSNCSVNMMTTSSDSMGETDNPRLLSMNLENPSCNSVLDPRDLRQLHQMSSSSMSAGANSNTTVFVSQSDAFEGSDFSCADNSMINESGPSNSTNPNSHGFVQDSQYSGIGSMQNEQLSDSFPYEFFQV

[4] = Mus musculus, RAW264.7, RAW 264.7 cells

p65 (RelA), sequence (Q04206 whole entry): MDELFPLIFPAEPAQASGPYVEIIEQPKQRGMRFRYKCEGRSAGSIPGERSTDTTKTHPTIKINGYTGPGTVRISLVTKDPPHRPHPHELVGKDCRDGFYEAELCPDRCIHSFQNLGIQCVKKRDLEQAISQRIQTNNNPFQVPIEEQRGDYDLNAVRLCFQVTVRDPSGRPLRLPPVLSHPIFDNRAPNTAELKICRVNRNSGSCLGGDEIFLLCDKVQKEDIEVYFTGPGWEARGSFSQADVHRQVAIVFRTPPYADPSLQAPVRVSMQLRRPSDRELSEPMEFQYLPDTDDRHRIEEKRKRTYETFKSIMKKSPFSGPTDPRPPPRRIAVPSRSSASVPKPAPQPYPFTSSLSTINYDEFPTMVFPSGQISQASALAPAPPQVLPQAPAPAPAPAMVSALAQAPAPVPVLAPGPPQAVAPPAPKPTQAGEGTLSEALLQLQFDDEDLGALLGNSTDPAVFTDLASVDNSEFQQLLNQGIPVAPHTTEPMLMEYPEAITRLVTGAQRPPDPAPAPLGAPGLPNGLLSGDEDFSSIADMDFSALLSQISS

Row | EC50 (NF-κB [1]) [µM] | EC50 (NF-κB [2]) [µM] | EC50 [3, 4] [µM] | IC50 (p65 (RelA)) [µM] | IC50 (p50) [µM] | IC50 (p52) [µM] | inhibition at 5 µM (RelB) [%] | inhibition at 5 µM (c-Rel) [%] | EC50 ([3]; RAW 264.7 cells) [µM] | RelB binding % inhibit. at 5 uM (RelB) [%] | c-Rel binding % inhibit. at 5 uM (c-Rel) [%] | inhibition at 5 µM (p50) [%] | inhibition at 5 µM (p52) [%] | IC50 (RelB) [µM] | IC50 (c-Rel) [µM] | EC50 (NF-κB [1]; trifluoroacetate) [µM] | EC50 ([3]; RAW 264.7 cells, trifluoroacetate) [µM] | EC50 (NF-κB [1]; mesylate) [µM] | EC50 ([3]; RAW 264.7 cells, mesylate) [µM] | p52 binding % inhibit. at 5 uM (p52; at 5 uM) [%] | Structure (SMILES)
1 | > 51 | 40 | > 51 | 5 | 118 | 365 | 21 | 23 | – | – | – | – | – | – | – | – | – | – | – | – | O=C(NC1=CC(=O)C2OC2C1O)c1cnccc1O (racemic) [Example 4, (±)-4-hydroxy-N-(2-hydroxy-5-oxo-7-oxa-bicyclo[4.1.0]hept-3-en-3-yl)-nicotinamide]
2 | 15 | 3.4 | – | – | > 636 | 301 | – | – | 1.4 | 0 | 15 | – | – | – | – | – | – | – | – | – | O=C(NC1=CC(=O)C2OC2C1O)c1ncccc1O (racemic) [Example 3, (±)-3-hydroxy-N-(2-hydroxy-5-oxo-7-oxabicyclo[4.1.0]hept-3-en-3-yl)picolinamide]
3 | 15 | 5.8 | 7.7 | 4.6 | – | – | 18 | 40 | – | – | – | 4 | 9 | – | – | – | – | – | – | – | O=C(NC1=CC(=O)C2OC2C1O)c1cnc(N2CCCCC2)nc1O (racemic) [Example 11, (±)-4-hydroxy-2-piperidin-1-yl-pyrimidine-5-carboxylic acid (2-hydroxy-5-oxo-7-oxa-bicyclo[4.1.0]hept-3-en-3-yl)-amide]
4 | 7.1 | 1.2 | 0.64 | 0.88 | 20 | 3.7 | – | – | – | – | – | – | – | 1.7 | 0.8 | – | – | – | – | – | COc1ncccc1C(=O)NC1=CC(=O)C2OC2C1O (racemic) [Example 16, (±)-N-(2-hydroxy-5-oxo-7-oxa-bicyclo[4.1.0]hept-3-en-3-yl)-2-methoxy-nicotinamide]
5 | 0.46 | 2.2 | 0.16 | 4.5 | 129 | 59 | – | – | – | – | – | – | – | 12 | 11 | – | – | – | – | – | COc1c(C(=O)NC2=CC(=O)C3OC3C2O)ccc2cccnc12 (racemic) [Example 29, (±)-N-(2-hydroxy-5-oxo-7-oxabicyclo[4.1.0]hept-3-en-3-yl)-8-methoxyquinoline-7-carboxamide]
6 | 16 | 11 | 1.6 | 4.7 | 246 | 84 | – | – | – | – | – | – | – | 12 | 14 | – | – | – | – | – | COc1nccnc1C(=O)NC1=CC(=O)C2OC2C1O (racemic) [Example 26, (±)-3-methoxy-pyrazine-2-carboxylic acid (2-hydroxy-5-oxo-7-oxa-bicyclo[4.1.0]hept-3-en-3-yl)-amide]
7 | 4.1 | 0.84 | 0.13 | 1.1 | 1.2 | 4.7 | – | – | – | – | – | – | – | 0.65 | 0.49 | – | – | – | – | – | COc1nc2ccccc2cc1C(=O)NC1=CC(=O)C2OC2C1O (racemic) [Example 25, (±)-2-methoxy-quinoline-3-carboxylic acid (2-hydroxy-5-oxo-7-oxa-bicyclo[4.1.0]hept-3-en-3-yl)-amide]
8 | 9.6 | 7.7 | – | 5.8 | – | – | 29 | 40 | 1.4 | – | – | 1 | 18 | – | – | – | – | – | – | – | COc1cccnc1C(=O)NC1=CC(=O)C2OC2C1O (racemic) [Example 20, (±)-3-methoxy-pyridine-2-carboxylic acid (2-hydroxy-5-oxo-7-oxa-bicyclo[4.1.0]hept-3-en-3-yl)-amide]
9 | – | – | – | 0.55 | 22 | 22 | – | – | – | – | – | – | – | 1.5 | 1.1 | 5.8 | 0.38 | – | – | – | COc1ncccc1C(=O)NC1=CC(=O)C2OC2C1O (racemic) [Example 21, (±)-N-(2-hydroxy-5-oxo-7-oxa-bicyclo[4.1.0]hept-3-en-3-yl)-2-methoxy-nicotinamide trifluoroacetate]
10 | – | – | – | – | – | – | – | – | – | 6 | 7 | – | – | – | – | – | – | 22 | 2.5 | 14 | CS(=O)(=O)O.O=C(NC1=CC(=O)C2OC2C1O)c1ncccc1O (racemic) [Example 12, (±)-3-hydroxy-N-(2-hydroxy-5-oxo-7-oxabicyclo[4.1.0]hept-3-en-3-yl)picolinamide, mesylate]
